Results taken from patent US9725430B2, “Use of small molecule inhibitors targeting EYA tyrosine phosphatase” (Children's Hospital Medical Center, priority 2013, dated 2017).

Legend:
[1] = system: HUVECs; experiment: HUVEC tubulogenesis on Matrigel; format: cell-based, human; conditions: for tube formation on Matrigel: HUVEC
Description: Primary endothelial cells (ECs) on basement membrane rapidly attach, align themselves and form capillary-like tubules with lumens and tight cell-cell contacts. […] To better understand the stage in matrigel tube-formation affected by compound 1g cells plated on growth-factor reduced matrigel and treated with either vehicle or compound 1g were followed. Differences become apparent within the first two hours and were clearly visible at the 6-hour time-point. The ECs are much less organized in the presence of compound 1g. […] The effect of compound 1g on tube formation was attenuated in the presence of high concentrations of fetal bovine serum (FBS), likely reflecting non-specific protein binding.
The EYA inhibitors were also tested in tubulogenesis assays. The tubulogenesis assays were performed in 15-well micro-slide (ibidi LLC, Verona Wis.), using growth factor-reduced matrigel (BD Bioscience, Billerica, Mass.). The matrix was prepared by loading 10 μl of matrigel in each micro-slide well and allowing it to solidify for 30 minutes at 37° C. HUVECs were trypsinized and resuspended at 100.000 cell/ml in EBM+2.5% FBS. 50 μl (5,000 cell) were loaded on top of the solidified matrigel and the preparation was incubated for 20 hours at 37° C. in a humidified incubator in a 5% CO2 atmosphere. Bright field images were taken using an inverted microscope at 2.5× magnification, which allowed imaging of the whole well in two pictures that were later merged in Photoshop. Tubular structures were traced and counted using NeuroJ (NIH, USA). In experiments with inhibitor, the inhibitor was added to the cell suspension before loading. Each sample was loaded in triplicate, and each treatment was repeated for reproducibility.

[2] = system: HUVECs; experiment: HUVEC proliferation (MTT); format: cell-based, human; conditions: 5 μM, 24 hours
[3] = biological target: EYA3 (Homo sapiens (Human), UniProt Q99504); experiment: pNPP assay, full-length human recombinant EYA3; format: biochemical
Description: The catalytic domain of mouse Eya3 (“ED”, comprising residues 223-510 of Eya3) was purified as described by Rayapureddi, J. P. et al. (FEBS Lett 580, 3853-3859 (2006), incorporated by reference in its entirety). For full-length Eya3 (“hEYA3”), human Eya3 isoform 2 (representing the major species identified in human cell lines by mass spectrometry, expressed as residues 127-573 of NM_001990, isoform 1) was sub-cloned into pDEST565 to express a poly-histidine-Glutathione-S-transferase (His-GST) tagged fusion protein with a TVMV protease site. The protein was purified by glutathione-S-transferase affinity chromatography followed by TVMV cleavage, Ni-NTA chromatography, and finally size exclusion chromatography. […]
The compounds were then tested using full-length human recombinant, purified EYA3 and pNPP as a substrate. Compounds were dissolved in DMSO and diluted as needed. […] Reactions were incubated at 30° C. for 30 minutes and quenched with 100 mM EDTA pH 10. IC50 values were then calculated directly from regression curves using PRISM software. All reported values are the mean of two independent experiments.

[4] = system: HUVECs; experiment: HUVEC cell viability assay (WST-8); format: cell-based, human; conditions: 3 days of exposure
Description: Additionally, a cell viability assay was conducted over 3 days of exposure to test compounds 1, 1a and 1g in order to assess both the possibility of immediate cellular toxicity as well as any effect on cell proliferation. HUVECs were seeded and equilibrated for 24 hours before addition of the test compounds. Cellular metabolic activity was measured at defined time-points using the tetrazolium dye WST-8 to quantify NAD(P)H-dependent cellular oxidoreductase enzyme activity.

[5] = system: mouse aortic rings; experiment: Aortic ring sprouting assay; format: cell-based; conditions: 5 μM, 10 days
Description: Additionally, the effect of compounds 1d, 1f, 1h, 1i, 1g, 2 and 2a on cell proliferation, migration, tube formation, micro-vessel branching, and perivascular recruitment using an aortic ring sprouting assay. When slices of mouse aorta are cultured in collagen gels there is typically a lag phase for the first 4 days followed by linear sprouting of endothelial cells. By day 6, branching is observed. All the test compounds were initially assayed at 7.5 μM and the number of branch-points counted. When there was a severe effect (no visible sprouting), or when there was no apparent effect, other doses were tested to establish a dose-dependence. All of the compounds assayed were able to attenuate aortic ring sprouting. There was a strong reduction in initial sprouting and some attenuation of branching. With the exception of 2a, in all cases where there was sprouting, the length of sprouts was shorter than in the controls.
Endothelial cell migration can also be studied […] using the aortic ring assay in which sprouting angiogenesis is monitored by the formation of vascular sprouts outside the wall of mouse aortic rings incubated in collagen matrix and stimulated by VEGF (Gerhardt, H., et al. EXS, 3-15 (2005), hereby incorporated by reference in its entirety). Briefly, mice were obtained from the Cincinnati Children's veterinary service and handled according to the institutional animal care and use protocol. […] Mice were 4 to 6 weeks old female C57BL16, and aortic ring explants were cultured at 37° C. in a humidified incubator under a 5% CO2 atmosphere.
Each inhibitor was serially diluted (between 0.25 mM and 7.5 mM) to stocks of 1000× the working concentrations in sterile 100% DMSO in order to achieve an equal final concentration of DMSO (0.1% v/v) in all culture conditions. For the experiments, the compounds were diluted in EBM containing 2.5% FBS, penicillin/streptomycin and 20 ng/ml VEGF165 (R&D Systems, Minneapolis, Minn.). Each compound was applied from the first day of culture over a 10-day period with medium change every two days. In all experiments, the vehicle (DMSO, 0.1%) was used as control. The sprouting density was derived from counting the number of branches per ring, and the extent of angiogenic sprouting was estimated by measuring the total surface area covered by the vessels as illustrated in FIG. 7.

[6] = system: retinal vasculature; experiment: Mouse model of oxygen-induced retinopathy; format: in vivo, mice; conditions: 100 or 50 pmoles injected at P12, analyzed at P16
Description: The mouse model of oxygen-induced retinopathy mimics the retinopathy characteristic of proliferative retiopathy conditions such as retinopathy of prematurity and diabetic retinopathy. […] The resulting retinal hypoxia after day 12, when pups were brought back to 20% O2, induced excessive hypoxia-driven angiogenesis. A characteristic large avascular area at the center of the retina and excessive regrowth of superficial vessels (pre-retinal neovascular tufts) in the mid-peripheral region was observed. […] In contrast, inhibition of either Vegf or Vegfr2 in OIR experiments suppresses both neovascular tuft formation and revascularization.

Chain of EYA3 (Q99504 127-573): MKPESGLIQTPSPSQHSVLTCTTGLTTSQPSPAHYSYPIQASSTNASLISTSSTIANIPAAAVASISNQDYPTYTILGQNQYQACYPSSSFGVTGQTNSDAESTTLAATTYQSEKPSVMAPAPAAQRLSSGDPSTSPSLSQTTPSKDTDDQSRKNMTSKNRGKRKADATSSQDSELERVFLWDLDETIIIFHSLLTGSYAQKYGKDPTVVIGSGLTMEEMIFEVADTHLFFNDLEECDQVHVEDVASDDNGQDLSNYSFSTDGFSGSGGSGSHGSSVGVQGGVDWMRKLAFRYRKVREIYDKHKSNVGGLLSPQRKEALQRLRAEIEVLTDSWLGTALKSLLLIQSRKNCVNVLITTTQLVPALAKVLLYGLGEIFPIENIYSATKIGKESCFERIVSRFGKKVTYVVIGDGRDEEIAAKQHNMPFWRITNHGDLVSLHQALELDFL

SMILES	tubulogenesis inhibition ([1]; 7.5 μM)	tube formation on Matrigel [1]	HUVEC cell proliferation [2]	inhibitory effect in presence of detergent ([3]; 0.01% Triton X-100)	mode of inhibition (substrate titration) ([3]; increasing substrate concentration)	cell viability [4]	sprout length and microvascular density of aortic rings [5]	formation of neovascular tufts [6]	IC50 ([3]; pNPP substrate, full-length EYA3) [µM]
CCc1oc2ccccc2c1C(=O)c1cc(Br)c(O)c(Br)c1 [Compound 1, Benzbromarone, reference compound]	effective at the highest concentrations tested	inhibit EYA3 protein in cell migration and tubulogenesis	no effect on cell proliferation	retained	not a competitive inhibitor	reduced cell viability	shorter sprouts and significantly lower microvascular density	Significant reduction in the formation of neovascular tufts	
CCc1oc2ccccc2c1C(=O)c1ccc(O)cc1 [Compound 1a]		inhibit EYA3 protein in cell migration and tubulogenesis	no effect on cell proliferation			reduced cell viability	shorter sprouts and significantly lower microvascular density	Significant reduction in the formation of neovascular tufts	17
